Assay results published in patent US20250213560A1, “NITROGEN-CONTAINING HETEROCYCLIC COMPOUNDS HAVING PHENYL GROUP AND USES THEREOF” (BNH RESEARCH CO., LTD., priority 2022, published 2025).

Columns and labels:
[1] = tested on: 293T cells; experiment: Cytotoxicity test (CCK-8 cell viability) in 293T cells; type: cell-based, human; settings: 293T cell line
Description: Human undifferentiated neuroblastoma cell line SH-SY5Y and human embryonic kidney cell line (HEK)-293T were purchased from Korean Cell Line Bank (Korea) and Takara (Japan), respectively. Cells were grown in HyClone Minimal Essential Medium (MEM) and Dulbecco's Modified Eagle Medium (DMEM), respectively, supplemented with 10% (v/v) fetal bovine serum (FBS), penicillin (100 U/mL), and streptomycin ([…]). Cells were maintained in a humidified atmosphere of 95% air and 5% CO2 at 37° C. Cells were passaged 10 times at maximum. Cells were dissociated using 0.05% trypsin-EDTA solution and the cells were seeded in new culture dishes for maintenance.
To examine the cytotoxicity of compounds described herein in human cell lines, SH-SY5Y and 293T cells were used. Approximately 8,000 cells (for 293T) and 15,000 cells (for SH-SY5Y) were plated per well of a 96-well plate (SPL Life Sciences Co., Ltd., Pocheon, Korea). After incubating at 37° C. for 24 hours in a humidified atmosphere containing 5% CO2, the culture medium was replaced by a series of concentrations of test compounds diluted in the corresponding culture medium.
The time of co-incubation was 24 hours and six replicates were made for each measurement. Finally, 10 μL of CCK-8 reagent (Dojindo Laboratories, Rockville, MD) was added to each well, and after incubation at 37° C. for 3 minutes, the OD at 450 nm was measured using a multifunction microplate reader (Tecan Infinite M200 Pro). These measurements were compared to that of a control and expressed as a percentage of the control to calculate cell viability. The IC50 value was calculated using SPSS software. To do this, the absorbance of the blank wells with only growth medium is subtracted from the values or the wells with cells. The readout value of background (vehicle) was set as a 100% viability, and then the percent viability for each test solution was calculated.
The data was presented as the mean value and standard error of the mean (S.E.M.). Statistical analysis was performed with the one-way ANOVA with Tukey's post hoc test (GraphPad Prism 5 software package, version 5.02, GraphPad Software Inc. USA). Significance was accepted at p<0.05.
The cytotoxicity of the compound was evaluated by treating cells with BnH12003 and measuring cell viability.
By treating cells with various BnH12 series compounds and measuring cell viability using the experimental procedure described in Example 2, the cytotoxicity of the compounds was evaluated.

[2] = tested on: GluN2B; experiment: GluN2B protein expression by Western blot in primary cortical neuron cells; type: cell-based, mouse; settings: for Western blot results Mean (GluN2B expression): relative value, vehicle set to 1, primary cortical neurons treated for 24 hours; for GluN2B expression effect (in words): compared to vehicle / other compounds, Table 5
Description: Meanwhile, primary cortical neuron cells were isolated from cerebral cortices of 18-day-old mouse fetuses, incubated in prep media (composition (mM): NaCl 107.5, NaH2PO4 1, NaHCO333.5, glucose 11, HEPS 1%, penicillin-streptomycin 1%) containing 0.25% trypsin and DNasel for 30 minutes, dissociated into single cells, and seeded. Primary cortical neuron cells were grown in Neurobasal medium supplemented with 1% (v/v) B27, 1% penicillin (100 U/mL), streptomycin ([…]), and 1% Glutamax. Cells were maintained in a humidified atmosphere of 95% air and 5% CO2 at 37° C. Drug efficacy was evaluated after culturing primary cortical neuron cells for 14 days.
The amount of GluN2B reacted with the compound of the present disclosure was measured using Western blot. The fetal cerebral cortex was extracted from mice at 17 days of gestation, dissociated into single cells, cultured for 13 days, and treated with BnH drugs for 24 hours. The drug-treated cells were subjected to protein lysate preparation using RIPA protein lysis buffer containing protease and phosphatase inhibitors. The protein concentration was determined using a BCA protein assay kit (Pierce Biotechnology) using bovine serum albumin as a standard. Equal amounts of protein (20 μg per lane) were separated by electrophoresis on SDS-polyacrylamide gels at 90 V for 2 hours, then transferred from the SDS-polyacrylamide gel to PVDF membrane at 100 V for 1 hour. Then, primary reaction with GluN2B antibody (ab65783, Abcam) was performed at 4° C. for 1 day, washed three times at 10-minutes intervals with 1×PBT, and secondary reaction was performed with anti-mouse antibody (sc-2357, Santa Cruz) for 1 hour, followed by washing three times at 10-minutes intervals with 1×PBT. Western blotting was performed as described above to confirm GluN2B protein expression. Subsequently, each blot was re-probed using anti-β-actin antibody (sc-47778, Santa Cruz). Housekeeping protein B-actin was detected as a normalization control.
The increase and decrease of BnH12 series were confirmed by setting the vehicle to 1 (N for each group was 3 or more).
Using the experimental procedure described in Example 3, it was determined whether various BnH12 series compounds increase GluN2B expression, and the results are shown in Table 5. These in vitro experimental results are expressed as relative values to the group (vehicle) that was not treated with the compound, with the effect of the group set to 1.

Compound | Cell viability test results (CCK) 10 uM [1] | Cell viability test results (CCK) 100 uM [1] | Western blot results Mean (GluN2B expression) [2] | GluN2B expression effect (in words) [2]
CCN(CC)c1ccc(-c2ccc(CC(=O)N3C[C@H](C(=O)O)CC[C@@H]3C)cc2)cc1 [BnH12090, (3R,6S)-1-(2-(4′-(diethylamino)-8 1,1′-biphenyl9-4-yl)acetyl)-6-methylpiperidine-3-carboxylic acid] | 85%< | 30%< | 1.698 | –
O=C(NO)[C@@H]1CCCN1C(=O)Cc1ccc(-c2cncnc2)cc1 [BnH12017, (S)-N-hydroxy-1-(2-(4-(pyrimidin-5-yl)phenyl)acetyl)pyrrolidine-2-carboxamide] | 95%< | 80%< | 1.448 | –
6-Ethyl-1-(2-(4-(pyrimidin-5-yl)phenyl) acetyl) piperidine-3-carboxylic acid [BnH12097] | 90%< | 85%< | 2.625 | excellent effects
C[C@H]1CC[C@@H](C(=O)O)CN1C(=O)Cc1ccc(-c2cccnc2)cc1 [BnH12046, (3R,6S)-6-methyl-1-(2-(4-(pyridin-3-yl)phenyl)acetyl) piperidine-3-carboxylic acid] | 95%< | 90%< | 2.102 | excellent effects
C[C@H]1CC[C@@H](C(=O)O)CN1C(=O)Cc1ccc(-c2ncccn2)cc1 [BnH12048, (3R,6S)-6-methyl-1-(2-(4-(pyrimidin-2-yl)phenyl)acetyl) piperidine-3-carboxylic acid] | 95%< | 80%< | 1.071 | –
C[C@@H]1CC[C@H](C(=O)O)CN1C(=O)Cc1ccc(-c2cnccn2)cc1 [BnH12067, (3S,6R)-6-methyl-1-(2-(4-(pyrazin-2-yl)phenyl)acetyl) piperidine-3-carboxylic acid] | 99%< | 85%< | 2.565 | excellent effects
C[C@@H]1CC[C@H](C(=O)O)CN1C(=O)Cc1ccc(-c2cncnc2)cc1 [BnH12071, (3S,6R)-6-methyl-1-(2-(4-(pyrimidin-5-yl)phenyl)acetyl) piperidine-3-carboxylic acid] | 80%< | 75%< | 1.799 | –
C[C@H]1CC[C@@H](C(=O)O)CN1C(=O)Cc1ccc(-c2cnccn2)cc1 [BnH12047, (3R,6S)-6-methyl-1-(2-(4-(pyrazin-2-yl)phenyl)acetyl) piperidine-3-carboxylic acid] | 99%< | 99%< | 1.554 | –
C[C@H]1CC[C@@H](C(=O)O)CN1C(=O)Cc1cccc(-c2cncnc2)c1 [BnH12095, (3R,6S)-6-methyl-1-(2-(3-(pyrimidin-5-yl)phenyl)acetyl) piperidine-3-carboxylic acid] | 80%< | 75%< | 2.871 | excellent effects
C[C@H]1CC[C@@H](C(=O)O)CN1C(=O)Cc1ccc(-c2ccc(N)cc2)cc1 [BnH12086, (3R,6S)-1-(2-(4′-amino-8 1,l′-biphenyl9-4-yl)acetyl)-6-methylpiperidine-3-carboxylic acid] | 80%< | 70%< | 1.753 | –
C[C@H]1CC[C@@H](C(=O)O)CN1C(=O)Cc1ccc(-c2cnco2)cc1 [BnH12057, (3R,6S)-6-methyl-1-(2-(4-(oxazol-5-yl)phenyl)acetyl) piperidine-3-carboxylic acid] | 95%< | 55%< | 2.241 | excellent effects
